Consider four compounds from ChEMBL document CHEMBL1201862, “PubChem BioAssay data set” (2004).

Assay in all cases: inhibition of tumour cell growth, NCI panel, 48 h
The test system of experiment [1] is RXF 393.
For experiment [2], the system named is LOX IMVI.
For experiment [3], the system named is SN12C.
The test system of experiment [4] is HOP-62.
The test system of experiment [5] is HCT-15.
Experiment [6] relates to PC-3.
The subject of experiment [7] is ACHN.
For experiment [8], the system named is SR.
In experiment [9] the test system is NCI/ADR-RES.
For experiment [10], the system named is SK-MEL-2.
Experiment [11] has as its system NCI-H23.
The subject of experiment [12] is HT-29.
Experiment [13] relates to HCC 2998.
Experiment [14] deals with K562.
Experiment [15] relates to Malme-3M.
Experiment [16] relates to OVCAR-3.
Experiment [17] concerns OVCAR-5.
Experiment [18] has as its system CCRF-CEM.
The test system of experiment [19] is NCI-H460.
Experiment [20] relates to KM12.

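Interpolation was linear, between the two tested concentrations surrounding the appropriate level; five concentrations were tested over 48 hours in 96-well plates. Here, GI50 denotes the concentration required for 50% inhibition of growth.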 Calls of active or inactive are those of the source. Cut-off read from the data, not from the text of the source: active = GI50 up to about 1.1 µM and inactive = higher. A value given as a limit tells only on which side of the number the result lay.

With `COc1cc(C2S/C(=C/c3ccccc3)C(=O)N2c2ccc(Cl)c(Cl)c2)cc(OC)c1OC` (stereo not given), the GI50 in experiment [1] was > 51.8 µM (inactive); in experiment [2], 19.2 µM (inactive); in [3] it was > 61.4 µM (inactive); in [4], 47.3 µM (inactive); in experiment [5] it was 18.7 µM; in experiment [6] it was 20.5 µM (inactive). The GI50 in experiment [7] is 18.7 µM (inactive); in [8] it was 26 µM (inactive); in experiment [9], 32.6 µM (inactive); in experiment [10], 12.6 µM (inactive); in [11], 48.9 µM (inactive); in experiment [12], 55.5 µM (inactive). The GI50 in experiment [13] was 58.9 µM (inactive); in experiment [14], 15.2 µM (inactive); in experiment [15], 42 µM (inactive); in [16] it was > 57.1 µM (inactive); in [17] it was 10.1 µM (inactive); in experiment [18] it was 1.36 µM (inactive). In addition, the values for the GI50 in experiment [19] and in experiment [20] were 30.7 µM (inactive) and 18.1 µM (inactive), respectively.

Turning to `COc1ccc(C(=O)/C=C/c2cc(O)c(O)c(F)c2F)c(OC)c1`, the GI50 in [1] was 18.2 µM (inactive); in [2], 13.6 µM (inactive); in [3], 10.3 µM (inactive); in [4], 26.5 µM (inactive); in experiment [5], 4.99 µM; in experiment [6] it was 12.3 µM (inactive). The GI50 was 20.8 µM (inactive) in experiment [7]; 4.24 µM (inactive) in experiment [8]; 10.1 µM (inactive) in experiment [9]; 14.4 µM (inactive) in experiment [10]; 13.8 µM (inactive) in experiment [11]; 4.67 µM (inactive) in experiment [12]. Also, the GI50 in experiment [13] was 4.75 µM (inactive); in [14] it was 17.9 µM (inactive); in [15] it was 15.5 µM (inactive); in experiment [16], 5.48 µM (inactive); in [17], 35 µM (inactive); in experiment [18], 3.92 µM (inactive). In addition, the values for the GI50 in experiment [19] and in experiment [20] were 4.45 µM (inactive) and 11.4 µM (inactive), respectively.

Take `COc1cccc(C2c3cc4c(cc3OC(C)(N3CCCC3)C2C)OCO4)c1` (stereo not given): the GI50 in [1] was 14 µM (inactive); in experiment [2], 10.6 µM (inactive); in experiment [3], 17.2 µM (inactive); in [4], 6.62 µM (inactive); in [5], 5.35 µM; in experiment [6] it was 16.3 µM (inactive). For the same compound, the GI50 is 17.6 µM (inactive) in [7]; 9.48 µM (inactive) in [8]; 6.9 µM (inactive) in experiment [9]; 2.45 µM (inactive) in experiment [10]; 20.5 µM (inactive) in experiment [11]; 3.77 µM (inactive) in experiment [12]. The GI50 was 13.1 µM (inactive) in experiment [13]; 58.3 µM (inactive) in experiment [14]; 11.6 µM (inactive) in experiment [15]; 4.89 µM (inactive) in experiment [16]; 7.73 µM (inactive) in [17]; 32.7 µM (inactive) in experiment [18]. The figures for the GI50 in experiment [19] and in [20] were 9.62 µM (inactive) and 4 µM (inactive), respectively.

As for `COc1ccc(C(=O)c2cc(OC)c(OC)c(OC)c2)cc1`, the GI50 in experiment [1] was 0.331 µM (active); in [2] it was 0.147 µM (active); in experiment [3], 0.705 µM (active); in experiment [4], 0.7 µM (active); in experiment [5], 0.0566 µM; in experiment [6], 0.0775 µM (active). Further, the GI50 in experiment [7] was 1.29 µM (inactive); in experiment [8], 0.0581 µM (active); in [9], 0.054 µM (active); in [10], 0.342 µM (active); in experiment [11] it was 0.324 µM (active); in experiment [12] it was 0.0372 µM (active). Besides, the GI50 in experiment [13] was 0.321 µM (active); in [14] it was 0.0392 µM (active); in experiment [15], 0.0586 µM (active); in experiment [16] it was 0.0769 µM (active); in experiment [17] it was 5.98 µM (inactive); in [18], 0.0879 µM (active). Also, the GI50 is 0.0735 µM (active) in [19] and 0.0481 µM (active) in experiment [20].
